As usually defined, the IC50 is the concentration needed to halve the response being measured. Read a low IC50 as greater potency in that assay.

A short description of the assay: Compound was tested for the inhibition of E-selectin-mediated cellular adhesion.
In the case of `CCO[C@@H]1O[C@@H](CO)[C@H](O)[C@H](O[C@@H]2O[C@@H](CO)[C@@H](O[C@@H]3O[C@@H](CO)[C@H](O)[C@H](O[C@]4(C(=O)O)C[C@@H](O)[C@@H](NC(C)=O)[C@H]([C@H](O)[C@H](O)CO)O4)[C@@H]3O)[C@H](O[C@@H]3O[C@@H](C)[C@@H](O)[C@H](O)[C@@H]3O)[C@@H]2NC(=O)c2ccc3ccccc3c2)[C@@H]1O` [Ethyl(Sodium 5-actamido-3,5-dideoxy-alpha-D-glycero-D-galacto-nonulopyronosylonate)-(2,3)-O-(beta-D-galactopyranosyl)-(1,4)-O(alpha-L-fucopyranosyl)-(1,3)-O-[2-(2-naphthamido)-2-deoxy-beta-D-glucopyranosyl]-(1,3)-O-beta-D-galactopyranoside], the IC50 was 80 µM.

For the compound `CCO[C@@H]1O[C@@H](CO)[C@H](O)[C@H](O[C@@H]2O[C@@H](CO)[C@@H](O[C@@H]3O[C@@H](CO)[C@H](O)[C@H](O[C@]4(C(=O)O)C[C@@H](O)[C@@H](NC(C)=O)[C@H]([C@H](O)[C@H](O)CO)O4)[C@@H]3O)[C@H](O[C@@H]3O[C@@H](C)[C@@H](O)[C@H](O)[C@@H]3O)[C@@H]2NC(=O)C2CCCCC2)[C@@H]1O` [Ethyl(Sodium 5-actamido-3,5-dideoxy-alpha-D-glycero-D-galacto-nonulopyronosylonate)-(2,3)-O-(beta-D-galactopyranosyl)-(1,4)-O(alpha-L-fucopyranosyl)-(1,3)-O-[2-(Cyclohexanecarboxylic acid amido)-2-deoxy-beta-D-glucopyranosyl]-(1,3)-O-beta-D-galactopyranoside], the IC50 came to 2900 µM.

The compound `CCO[C@@H]1O[C@@H](CO)[C@H](O)[C@H](O[C@@H]2O[C@@H](CO)[C@@H](O[C@@H]3O[C@@H](CO)[C@H](O)[C@H](O[C@]4(C(=O)O)C[C@@H](O)[C@@H](NC(C)=O)[C@H]([C@H](O)[C@H](O)CO)O4)[C@@H]3O)[C@H](O[C@@H]3O[C@@H](C)[C@@H](O)[C@H](O)[C@@H]3O)[C@@H]2NC(C)=O)[C@@H]1O` [Ethyl(Sodium 5-actamido-3,5-dideoxy-alpha-D-glycero-D-galacto-nonulopyronosylonate)-(2,3)-O-(beta-D-galactopyranosyl)-(1,4)-O(alpha-L-fucopyranosyl)-(1,3)-O-[2-(N-acetylamido)-2-deoxy-beta-D-glucopyranosyl]-(1,3)-O-beta-D-galactopyranoside(N-acetyl SLex)] displayed an IC50 of 1000 µM.

Compound `CCO[C@@H]1O[C@@H](CO)[C@H](O)[C@H](O[C@@H]2O[C@@H](CO)[C@@H](O[C@@H]3O[C@@H](CO)[C@H](O)[C@H](O[C@]4(C(=O)O)C[C@@H](O)[C@@H](NC(C)=O)[C@H]([C@H](O)[C@H](O)CO)O4)[C@@H]3O)[C@H](O[C@@H]3O[C@@H](C)[C@@H](O)[C@H](O)[C@@H]3O)[C@@H]2NC(=O)c2ccccc2)[C@@H]1O` [Ethyl(Sodium 5-actamido-3,5-dideoxy-alpha-D-glycero-D-galacto-nonulopyronosylonate)-(2,3)-O-(beta-D-galactopyranosyl)-(1,4)-O(alpha-L-fucopyranosyl)-(1,3)-O-[2-(benzamido)-2-deoxy-beta-D-glucopyranosyl]-(1,3)-O-beta-D-galactopyranoside] yielded an IC50 of 300 µM.

Values taken from BindingDB's records for doi:10.1021/jm9600611 (Cytel, 1996).
